Data published in ChEMBL document CHEMBL4145470, “Efficient synthesis and first regioselective C-6 direct arylation of imidazo[2,1-c][1,2,4]triazine scaffold and their evaluation in H2O2-induced oxidative stress” (Eur J Med Chem, 2018).
Active and inactive are the calls of the source. The rule behind the calls is not given here.

Columns and labels:
[1] = target: RAC-alpha serine/threonine-protein kinase (Homo sapiens) (UniProt P31749); assay: Induction of Akt phosphorylation in H2O2-treated human SH-SY5Y cells at 0.1 uM by ELISA; type: cell-based
RAC-alpha serine/threonine-protein kinase (Homo sapiens), sequence (P31749 whole entry): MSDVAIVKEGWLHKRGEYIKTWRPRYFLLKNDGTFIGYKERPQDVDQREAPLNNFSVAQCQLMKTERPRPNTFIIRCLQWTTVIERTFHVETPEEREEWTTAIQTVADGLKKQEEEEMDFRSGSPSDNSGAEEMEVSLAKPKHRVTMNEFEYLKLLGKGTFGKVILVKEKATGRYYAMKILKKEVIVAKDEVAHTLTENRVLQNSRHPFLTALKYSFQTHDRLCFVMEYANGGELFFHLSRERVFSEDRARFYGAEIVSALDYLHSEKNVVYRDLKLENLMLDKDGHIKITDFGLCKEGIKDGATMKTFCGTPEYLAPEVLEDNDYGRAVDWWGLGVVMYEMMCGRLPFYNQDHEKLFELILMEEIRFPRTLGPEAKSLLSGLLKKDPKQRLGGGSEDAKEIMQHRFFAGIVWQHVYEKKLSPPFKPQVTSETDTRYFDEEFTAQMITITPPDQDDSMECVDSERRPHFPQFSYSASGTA

[2] = tested on: SH-SY5Y; assay: Cytoprotective activity against H2O2-induced oxidative stress in human SH-SY5Y cells assessed as cell viability at 10 uM preincubated for 24 hrs followed by H2O2 addition and measured after 1 hr by MTT assay (reference value: 37.88 +/- 8.52%); type: functional; conditions: read-out: Activity
[3] = tested on: SH-SY5Y; assay: Cytoprotective activity against H2O2-induced apoptosis in human SH-SY5Y cells assessed as increase in Bcl-2 levels at 0.1 uM preincubated for 24 hrs followed by H2O2 addition measured after 1 hr by Western blot analysis; type: functional, cell-based
[4] = tested on: SH-SY5Y; assay: Cytoprotective activity against H2O2-induced oxidative stress in human SH-SY5Y cells assessed as cell viability at 0.1 uM preincubated for 24 hrs followed by H2O2 addition and measured after 1 hr by MTT assay (reference value: 37.88 +/- 8.52%); type: functional; conditions: read-out: Activity
[5] = target: Eukaryotic translation initiation factor 2 subunit 1 (Homo sapiens) (UniProt P05198); assay: Inhibition of H2O2-induced eIF2alpha phosphorylation in human SH-SY5Y cells at 0.1 uM; type: cell-based
Eukaryotic translation initiation factor 2 subunit 1 (Homo sapiens), sequence (P05198 whole entry): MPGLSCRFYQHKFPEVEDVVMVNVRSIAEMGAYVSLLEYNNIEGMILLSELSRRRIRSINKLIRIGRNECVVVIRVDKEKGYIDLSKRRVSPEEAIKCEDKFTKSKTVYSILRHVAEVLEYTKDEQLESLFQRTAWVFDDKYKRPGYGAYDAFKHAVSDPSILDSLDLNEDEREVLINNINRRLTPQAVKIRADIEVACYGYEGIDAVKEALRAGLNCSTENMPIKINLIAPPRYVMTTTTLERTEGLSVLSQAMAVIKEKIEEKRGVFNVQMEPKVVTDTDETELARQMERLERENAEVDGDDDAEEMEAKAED

[6] = tested on: SH-SY5Y; assay: Cytoprotective activity against H2O2-induced oxidative stress in human SH-SY5Y cells assessed as increase in cell viability preincubated for 24 hrs followed by H2O2 addition and measured after 1 hr by MTT assay; type: functional, cell-based
[7] = tested on: SH-SY5Y; assay: Cytotoxicity against human SH-SY5Y cells at 1 to 10 uM after 24 hrs by MTT assay; type: cell-based
[8] = target: RAC-alpha serine/threonine-protein kinase (Homo sapiens) (UniProt P31749); assay: Induction of Akt phosphorylation in H2O2-treated human SH-SY5Y cells assessed as increase in pBad levels at 0.1 uM by ELISA; type: cell-based
[9] = tested on: SH-SY5Y; assay: Cytoprotective activity against H2O2-induced oxidative stress in human SH-SY5Y cells assessed as cell viability at 1 uM preincubated for 24 hrs followed by H2O2 addition and measured after 1 hr by MTT assay (reference value: 37.88 +/- 8.52%); type: functional; conditions: read-out: Activity
[10] = tested on: SH-SY5Y; assay: Cytoprotective activity against H2O2-induced apoptosis in human SH-SY5Y cells assessed as decrease in Bax levels at 0.1 uM preincubated for 24 hrs followed by H2O2 addition measured after 1 hr by Western blot analysis; type: functional, cell-based
[11] = tested on: SH-SY5Y; assay: Cytoprotective activity against H2O2-induced apoptosis in human SH-SY5Y cells assessed as increase in Bcl-2/Bax ratio at 0.1 uM preincubated for 24 hrs followed by H2O2 addition measured after 1 hr by Western blot analysis; type: functional, cell-based
[12] = target: T1, Mitogen-activated protein kinase; ERK1/ERK2 (Homo sapiens) (UniProt P27361+P28482); assay: Inhibition of H2O2-induced p44/42 MAPK phosphorylation in human SH-SY5Y cells at 1 uM; type: cell-based
T1 sequence (P27361 whole entry, looked up): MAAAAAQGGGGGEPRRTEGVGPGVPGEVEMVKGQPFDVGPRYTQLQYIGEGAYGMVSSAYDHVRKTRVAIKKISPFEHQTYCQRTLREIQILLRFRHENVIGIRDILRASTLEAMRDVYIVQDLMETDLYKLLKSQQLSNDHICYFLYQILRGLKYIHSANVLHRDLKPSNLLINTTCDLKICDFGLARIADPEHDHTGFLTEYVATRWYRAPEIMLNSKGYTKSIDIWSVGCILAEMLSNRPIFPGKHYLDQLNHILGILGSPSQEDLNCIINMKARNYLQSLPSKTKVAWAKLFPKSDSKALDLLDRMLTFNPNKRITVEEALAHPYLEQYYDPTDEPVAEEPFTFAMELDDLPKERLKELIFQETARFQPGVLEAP
T1 sequence (P28482 whole entry, looked up): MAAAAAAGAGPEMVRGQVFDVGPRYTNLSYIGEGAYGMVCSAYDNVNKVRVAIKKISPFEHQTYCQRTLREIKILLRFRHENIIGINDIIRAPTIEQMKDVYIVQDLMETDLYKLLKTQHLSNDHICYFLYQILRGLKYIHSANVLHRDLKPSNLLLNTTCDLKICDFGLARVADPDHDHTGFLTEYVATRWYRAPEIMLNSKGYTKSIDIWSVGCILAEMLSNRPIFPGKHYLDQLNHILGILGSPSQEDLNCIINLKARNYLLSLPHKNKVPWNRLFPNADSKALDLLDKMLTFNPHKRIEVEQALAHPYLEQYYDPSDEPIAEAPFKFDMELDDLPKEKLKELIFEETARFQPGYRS

[13] = tested on: SH-SY5Y; assay: Cytoprotective activity against H2O2-induced apoptosis in human SH-SY5Y cells assessed as relative Bcl-2 levels at 1 uM preincubated for 24 hrs followed by H2O2 addition measured after 1 hr by Western blot analysis (reference value: 2.084 +/- 0.078); type: functional
[14] = tested on: SH-SY5Y; assay: Cytoprotective activity against H2O2-induced apoptosis in human SH-SY5Y cells assessed as decrease in Bax levels at 1 uM preincubated for 24 hrs followed by H2O2 addition measured after 1 hr by Western blot analysis; type: functional, cell-based
[15] = Cytoprotective activity against H2O2-induced apoptosis in human SH-SY5Y cells assessed as relative cleaved caspase-7 levels at 1 uM (reference value: 1.025 +/- 0.120)
[16] = tested on: SH-SY5Y; assay: Cytoprotective activity against H2O2-induced apoptosis in human SH-SY5Y cells assessed as increase in Bcl-2/Bax ratio at 1 uM preincubated for 24 hrs followed by H2O2 addition measured after 1 hr by Western blot analysis; type: functional, cell-based
[17] = target: Eukaryotic translation initiation factor 2 subunit 1 (Homo sapiens) (UniProt P05198); assay: Inhibition of H2O2-induced eIF2alpha phosphorylation in human SH-SY5Y cells at 1 uM; type: cell-based
[18] = tested on: SH-SY5Y; assay: Cytoprotective activity against H2O2-induced apoptosis in human SH-SY5Y cells assessed as relative cleaved caspase-3 levels at 0.1 uM (reference value: 0.875 +/- 0.035); type: functional
[19] = target: T1, Mitogen-activated protein kinase; ERK1/ERK2 (Homo sapiens); assay: Inhibition of H2O2-induced p44/42 MAPK phosphorylation in human SH-SY5Y cells at 0.1 uM; type: cell-based
[20] = tested on: SH-SY5Y; assay: Cytoprotective activity against H2O2-induced apoptosis in human SH-SY5Y cells assessed as relative cleaved PARP levels at 0.1 uM (reference value: 0.725 +/- 0.06); type: functional
[21] = tested on: SH-SY5Y; assay: Cytoprotective activity against H2O2-induced apoptosis in human SH-SY5Y cells assessed as relative Bcl-2 levels at 10 uM preincubated for 24 hrs followed by H2O2 addition measured after 1 hr by Western blot analysis (reference value: 2.084 +/- 0.078); type: functional
[22] = target: T1, Mitogen-activated protein kinase; ERK1/ERK2 (Homo sapiens); assay: Inhibition of H2O2-induced p44/42 MAPK phosphorylation in human SH-SY5Y cells at 10 uM; type: cell-based
[23] = tested on: SH-SY5Y; assay: Cytoprotective activity against H2O2-induced apoptosis in human SH-SY5Y cells assessed as increase in Bcl-2/Bax ratio at 10 uM preincubated for 24 hrs followed by H2O2 addition measured after 1 hr by Western blot analysis; type: functional, cell-based

| Compound | Activity [1] | viability at 10 µM [2] [%] | viability at 0.1 µM [4] [%] | inhibition [5] | Activity [6] | Activity [7] | Activity [8] | viability at 1 µM [9] [%] | Activity [10] | other results |
| --- | --- | --- | --- | --- | --- | --- | --- | --- | --- | --- |
| COc1ccccc1-c1cn2ccnnc2n1 | Active | 51.1 | 62.7 | inactive | Dose-dependent effect | Non-Toxic | Active | 60.5 | Active | Activity [3]: Active |
| COc1ccc(-c2nc3nnccn3c2-c2ccc([N+](=O)[O-])cc2)cc1 | inactive | 74.9 | 81.2 | inactive | Dose-dependent effect | Non-Toxic | inactive | 56 | Active |  |
| COc1ccc(-c2nc3nnccn3c2-c2ccc(OC(F)(F)F)cc2)cc1 | Active | 66.8 | 78.6 | inactive | Dose-dependent effect | Non-Toxic | Active | 54.8 | Active | Activity [11]: Active; Activity [3]: Active |
| COc1ccc(-c2nc3nnccn3c2-c2ccncc2)cc1 |  | 61.5 | 64.1 |  | Dose-dependent effect | Non-Toxic |  | 55.7 |  |  |
| COc1ccc(-c2nc3nnccn3c2-c2ccc(C)c([N+](=O)[O-])c2)cc1 | Active | 83.3 | 49.5 |  | Dose-dependent effect | Non-Toxic | Active | 79.6 |  | inhibition [12]: Active; fold change (FC) [13]: 2.398; Activity [14]: Active; fold change (FC) [15]: 0.834; Activity [16]: Active; inhibition [17]: inactive |
| COc1ccc(-c2nc3nnccn3c2-c2cccc(C#N)c2)cc1 |  | 54.3 | 66.6 | inactive | Dose-dependent effect | Non-Toxic |  | 55.5 |  |  |
| COc1ccc(-c2nc3nnccn3c2-c2ccccc2C)cc1 |  | 72.4 | 60.7 |  | Dose-dependent effect | Non-Toxic |  | 73.8 |  | inhibition [12]: Active; Activity [14]: Active; inhibition [17]: inactive |
| COc1ccc(-c2nc3nnccn3c2-c2ccccc2)cc1 | Active | 79.7 | 72.9 | inactive | Dose-dependent effect | Non-Toxic | Active | 50.6 | Active | Activity [11]: Active; Activity [3]: Active |
| COc1ccc(-c2nc3nnccn3c2-c2cccc(F)c2)cc1 |  | 66.4 | 54.6 |  | Dose-dependent effect | Non-Toxic |  | 51.3 |  |  |
| COc1ccc(-c2nc3nnccn3c2-c2cccs2)cc1 | Active | 68.4 | 44.6 |  | Dose-dependent effect | Non-Toxic | inactive | 70.7 |  | fold change (FC) [13]: 2.955; Activity [14]: inactive; Activity [16]: Active; inhibition [17]: inactive |
| c1ccc(-c2cn3ccnnc3n2)cc1 | Active | 62.6 | 77.3 | inactive | Dose-dependent effect | Non-Toxic | Active | 72.8 | inactive |  |
| COc1ccc(-c2cn3ccnnc3n2)cc1 |  | 60.9 | 73.9 | inactive | Dose-dependent effect | Non-Toxic |  | 71.3 | Active | fold change (FC) [18]: 0.705; inhibition [19]: Active; fold change (FC) [20]: 0.62 |
| COc1ccc(-c2nc3nnccn3c2-c2ccc(OC)cc2)cc1 |  | 75.2 | 49.6 |  | Dose-dependent effect | Non-Toxic |  | 65.5 |  | fold change (FC) [21]: 3.015; inhibition [17]: inactive; inhibition [22]: Active; Activity [23]: Active |
| N#Cc1ccc(-c2cn3ccnnc3n2)cc1 |  | 54.2 | 67.1 |  | Dose-dependent effect | Non-Toxic |  | 65.4 |  |  |
| O=[N+]([O-])c1cccc(-c2cn3ccnnc3n2)c1 |  | 65.7 | 61.5 |  | Dose-dependent effect | Non-Toxic |  | 58.9 |  |  |
